Measurements published in ChEMBL document CHEMBL1201862, “PubChem BioAssay data set” (2004).
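1) Cells in 96-well plates. 2) Compound, 48 h, 5 concentrations. 3) Linear interpolation between surrounding doses. 4) Unreached endpoint = highest concentration. GI50 is the concentration that inhibits growth by half.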 Active and inactive are the calls of the source. No stated cut-off is given here; in the data, active = GI50 up to about 1.1 µM and inactive = higher.

How the values were obtained:
Experiment in all cases: inhibition of tumour cell growth, NCI panel, 48 h
SK-MEL-5 = tested on: SK-MEL-5
HOP-92 = tested on: HOP-92
EKVX = tested on: EKVX
IGROV-1 = tested on: IGROV-1
ACHN = tested on: ACHN
SK-MEL-28 = tested on: SK-MEL-28
SW-620 = tested on: SW-620
NCI-H460 = tested on: NCI-H460
CAKI-1 = tested on: CAKI-1
A549 = tested on: A549
UACC-257 = tested on: UACC-257
SNB-75 = tested on: SNB-75
OVCAR-3 = tested on: OVCAR-3
HCT-116 = tested on: HCT-116
M14 = tested on: M14
HCC 2998 = tested on: HCC 2998

Measured: GI50

Cc1nc2cc(N)c(F)cc2[nH]1
inactive: SK-MEL-5 > 100 µM | HOP-92 > 100 µM | EKVX > 100 µM | IGROV-1 > 100 µM | ACHN > 100 µM | SK-MEL-28 > 100 µM | SW-620 > 100 µM | NCI-H460 > 100 µM | CAKI-1 > 100 µM | A549 > 100 µM | UACC-257 > 100 µM

CCCC(=O)C(CC)/C(CCC(=O)N(Cc1ccccc1)Cc1ccccc1)=N/NC(=O)C[N+](C)(C)C (stereo not drawn)
inactive: SK-MEL-5 > 100 µM | HOP-92 > 100 µM | SNB-75 > 100 µM | EKVX > 100 µM | IGROV-1 > 100 µM | ACHN > 100 µM | SK-MEL-28 > 100 µM | SW-620 > 100 µM | NCI-H460 > 100 µM | OVCAR-3 > 100 µM | CAKI-1 > 100 µM | A549 > 100 µM | HCT-116 > 100 µM | UACC-257 > 100 µM | M14 > 100 µM

CC#COP(=O)(OCC)OCC
inactive: HCC 2998 > 100 µM | SK-MEL-5 > 100 µM | EKVX > 100 µM | IGROV-1 > 100 µM | ACHN > 100 µM | SW-620 > 100 µM | NCI-H460 > 100 µM | OVCAR-3 > 100 µM | CAKI-1 > 100 µM | A549 > 100 µM | HCT-116 > 100 µM | UACC-257 > 100 µM | M14 > 100 µM

COC(=O)c1nn(-c2ccccc2)c(=O)cc1N=[N+]=[N-]
inactive: HCC 2998 > 100 µM | SK-MEL-5 > 100 µM | EKVX > 100 µM | IGROV-1 > 100 µM | ACHN > 100 µM | SK-MEL-28 > 100 µM | SW-620 > 100 µM | NCI-H460 > 100 µM | OVCAR-3 > 100 µM | CAKI-1 > 100 µM | A549 > 100 µM | HCT-116 > 100 µM | UACC-257 > 100 µM | M14 > 100 µM

O=C(Nc1nc2ncn(CCO)c2c(=S)[nH]1)c1ccccc1
inactive: SK-MEL-5 > 100 µM | HOP-92 > 100 µM | SNB-75 > 100 µM | EKVX > 100 µM | IGROV-1 > 100 µM | ACHN > 100 µM | SW-620 > 100 µM | NCI-H460 > 100 µM | OVCAR-3 > 100 µM | CAKI-1 > 100 µM | A549 > 100 µM | HCT-116 > 100 µM | UACC-257 > 100 µM | M14 > 100 µM

O=C1NC2=C(CCCCC/C2=N\O)C12CCCCCC2
inactive: SK-MEL-5 > 100 µM | HOP-92 > 100 µM | SNB-75 > 100 µM | EKVX > 100 µM | IGROV-1 > 100 µM | ACHN > 100 µM | SK-MEL-28 > 100 µM | SW-620 > 100 µM | NCI-H460 > 100 µM | OVCAR-3 > 100 µM | CAKI-1 > 100 µM | A549 > 100 µM | HCT-116 > 100 µM | UACC-257 > 100 µM | M14 > 100 µM

CC(C)NC(C)C(C)c1ccccc1 (stereo not drawn)
inactive: HCC 2998 > 100 µM | SK-MEL-5 > 100 µM | SNB-75 > 100 µM | EKVX > 100 µM | IGROV-1 > 100 µM | ACHN > 100 µM | SK-MEL-28 > 100 µM | SW-620 > 100 µM | NCI-H460 > 100 µM | OVCAR-3 > 100 µM | CAKI-1 > 100 µM | A549 > 100 µM | HCT-116 > 100 µM | UACC-257 > 100 µM | M14 > 100 µM

CCCC(=O)Nc1ccc(O)c2c1C1CCCCCC21 (stereo not drawn)
inactive: SK-MEL-5 72.4 µM | SNB-75 72.3 µM | EKVX > 100 µM | ACHN 71.8 µM | SK-MEL-28 > 100 µM | SW-620 > 100 µM | NCI-H460 > 100 µM | A549 > 100 µM | HCT-116 85.3 µM | UACC-257 46.7 µM | M14 > 100 µM
